# Test results as given in patent US7365066B2, “Pyrazolopyridine derivatives as pharmaceutical agents” (Eli Lilly and Company, priority 2002, dated 2008).
# Legend:
# [1] = target: T1, TGF-beta Type I Receptor Kinase (RIT204D) (Homo sapiens, UniProt P36897, T204D); assay: TGF-β Type I receptor (RIT204D) in vitro kinase reaction; format: biochemical; conditions: RIT204D kinase domain, 4 uM ATP, 30° C. for 1 hr; read-out: IC50, inhibition of TGF-beta Type I Receptor Kinase
# T1 construct: The 6×-HIS tagged cytoplasmic kinase domain of each receptor was expressed and purified from Sf9 insect cell lysates; 6xHis; made in house; host or cells: Sf9 insect cells
# T1 sequence (P36897 148-503 T204D limits assumed): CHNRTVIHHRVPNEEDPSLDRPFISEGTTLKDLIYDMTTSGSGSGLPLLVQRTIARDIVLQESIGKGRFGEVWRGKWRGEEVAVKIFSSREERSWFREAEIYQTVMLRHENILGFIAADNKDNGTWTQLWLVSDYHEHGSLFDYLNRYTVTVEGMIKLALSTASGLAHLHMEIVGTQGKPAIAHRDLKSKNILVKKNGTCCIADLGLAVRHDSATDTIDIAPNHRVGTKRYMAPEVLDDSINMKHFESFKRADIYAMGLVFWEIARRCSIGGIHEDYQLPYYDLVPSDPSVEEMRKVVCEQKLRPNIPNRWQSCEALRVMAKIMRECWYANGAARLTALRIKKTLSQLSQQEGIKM
# Experimental: (§1) For TGF-β Type I (RIT204D) and Type II (RII WT) Receptor Kinases:
# (§2) The 6×-HIS tagged cytoplasmic kinase domain of each receptor was expressed and purified from Sf9 insect cell lysates as briefly described below:
# (§3) Cell pellets after 48-72 hrs of infection were lysed in lysis buffer (LB: 50 mM Tris pH 7.5, 150 mM NaCl, 50 mM NaF, 0.5% NP40 with freshly added 20 mM β-mercaptoethanol, 10 mM imidazole, 1 mM PMSF, 1×EDTA-free Complete Protease Inhibitor (Boehringer Mannheim).
# (§4) Cell lysates were clarified by centrifugation and 0.45 uM filtered prior to purification by Ni/NTA affinity chromatography (Qiagen).
# (§5) Equilibrate with 10 CV of LB, load sample, wash with 10 CV RIPA buffer (50 mM Tris pH 7.5, 150 mM NaCl, 1% NP40, 1 mM EDTA, 0.25% sodium deoxycholate, added fresh 20 mM β-mercaptoethanol, 1 mM PMSF), wash with 10 CV LB, wash with 10 CV 1× KB (50 mM Tris pH 7.5, 150 mM NaCl, 4 mM MgCl2, 1 mM NaF, 2 mM βmercaptoethanol), elute with a linear gradient of 1× KB containing 200 mM Imidazole.
# (§6) Both enzymes were approximately 90% pure and had autophosphorylation activity.
# (§7) Reactions: 170-200 nM enzyme in 1× KB, compound dilution series in 1× KB/16% DMSO (20 uM to […] final concentration with 4% DMSO final concentration), reactions started by adding ATP mix (4 uM ATP/1 uCi ^33P-γ-ATP final concentrations) in 1× KB.
# (§8) Reactions were incubated at 30° C. for 1 hr RIT204D or 40 min for RII WT. Reactions were stopped and quantitated using standard TCA/BSA precipitation onto Millipore FB glass fiber filter plates and by liquid scintillation counting on a MicroBeta JET.
# [2] = target: T2, TGF-beta Type II Receptor Kinase (RII WT) (Homo sapiens, UniProt P37173); assay: TGF-β Type II receptor (RII WT) in vitro kinase reaction; format: biochemical; conditions: RII WT kinase domain, 4 uM ATP, 30° C. for 40 min; read-out: IC50, inhibition of TGF-beta Type II Receptor Kinase
# T2 construct: The 6×-HIS tagged cytoplasmic kinase domain of each receptor was expressed and purified from Sf9 insect cell lysates; 6xHis; made in house; host or cells: Sf9 insect cells
# T2 sequence (P37173 188-567 limits assumed): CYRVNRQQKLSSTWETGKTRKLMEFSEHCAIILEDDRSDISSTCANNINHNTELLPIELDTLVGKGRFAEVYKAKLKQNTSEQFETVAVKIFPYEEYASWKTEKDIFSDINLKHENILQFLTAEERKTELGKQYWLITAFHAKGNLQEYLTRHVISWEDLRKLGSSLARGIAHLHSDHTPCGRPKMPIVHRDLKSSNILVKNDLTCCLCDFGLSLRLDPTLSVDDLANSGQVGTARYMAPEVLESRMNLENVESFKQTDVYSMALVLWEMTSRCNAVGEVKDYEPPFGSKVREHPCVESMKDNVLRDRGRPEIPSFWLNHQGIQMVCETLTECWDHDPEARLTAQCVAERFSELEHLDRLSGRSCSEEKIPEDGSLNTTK
# Experimental: as §1, §2, §3, §4, §5, §6, §7, §8
# [3] = test system: TGF-β dependent luciferase production (p3TP-Lux reporter, Mv1Lu C1 cells); assay: Mv1Lu p3TP-Lux assay; format: cell-based; conditions: 10 pM TGF-β1, 16-20 hrs, read-out: IC50, inhibition of TGF-beta dependent luciferase production
# Source text: A stable Mv1Lu clone (C1) containing the p3TP-Lux reporter was created by standard transfection and puromycin selection protocols. This stable clone was used to screen the example compounds for their ability to inhibit TGF-β dependent luciferase production as briefly described below: • 1. Plated Mv1Lu C1 cells in Wallac™ Black Isoplates. • 2. Allowed cells to adhere overnight. • 3. Removed media and replaced with 0.5% FBS DMEM media. • 4. Added the compound dilution series in 0.5% FBS/DMEM containing 1% DMSO such that the final compound concentration ranged from 20 uM to 0.1 nM and the final DMSO concentration was 0.2%. • 5. Incubated at 37° C./5% CO2 for 2 hrs. • 6. Added 0.5% FBS/DMEM as control or TGF-β1 diluted. in 0.5% FBS/DMEM (final concentration of 10 pM) to the −/+TGF-β wells respectively. • 7. Incubated for 16-20 hrs. at 37° C./5% CO2. • 8. Removed media and rinsed 1× with PBS. • 9. Removed PBS and lysed the cells with 1× Passive. Lysis Buffer (Promega) at room temperature. • 10. Counted relative luciferase activity on the MicroBeta JET by injecting Luciferase Assay Reagent II (PROMEGA).
# The use of the above assay in measuring TGF-β responsive activity is described in Wrana, et al. Cell 71: 1003-1014 (1992).
# [4] = target: T3, p38α/SAPK2α (Homo sapiens, UniProt Q16539); assay: p38α in vitro kinase assay; format: biochemical; conditions: 5 nM p38α, 62.5 uM EGFR substrate, 100 uM ATP, 30° C. for 40 min
# T3 construct: purchased Upstate Biotechnology 14-251
# Experimental: Active p38α/SAPK2α was purchased from Upstate Biotechnology (cat#14-251). A known p38α substrate from EGFR was used in the assay (Young, et al. (1997) JBC 272:12116-12121).
# Reactions were performed in 1× kinase buffer (25 mM Tris-HCl pH 7.5, 5 mM β-glycerophosphate, 2 mM DTT, 0.1 mM Na3VO4, 10 mM MgCl2, 1 uM Microcystin) with 5 nM p38α, 62.5 uM substrate, 40 uM to 0.2 nM compound dilution series in 1×KB/16% DMSO (final 4% DMSO concentration). Reactions were started by addition of 100 uM ATP (final concentration) with 1 uCi ^33P-γ-ATP in 1×KB and incubated at 30° C. for 40 min. Reactions were stopped with H3PO4 and quantitated on Millipore PH phosphocellulose filter plates by liquid scintillation counting on a MicroBeta JET.
# T3 sequence (Q16539 whole entry): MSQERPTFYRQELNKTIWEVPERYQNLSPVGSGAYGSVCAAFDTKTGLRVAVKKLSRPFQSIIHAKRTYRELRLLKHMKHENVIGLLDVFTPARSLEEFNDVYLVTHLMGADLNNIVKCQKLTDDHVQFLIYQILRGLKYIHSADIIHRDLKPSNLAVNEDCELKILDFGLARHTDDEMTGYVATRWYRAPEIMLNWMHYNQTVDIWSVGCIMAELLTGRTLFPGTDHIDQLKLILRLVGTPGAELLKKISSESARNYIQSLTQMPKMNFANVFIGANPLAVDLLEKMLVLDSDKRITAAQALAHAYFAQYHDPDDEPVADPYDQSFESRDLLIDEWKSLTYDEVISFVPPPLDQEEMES
SMILES,IC50 [1] [nM],IC50 [2] [nM],IC50 [3] [nM],IC50 [4] [nM]
"Cc1cccc(-c2nn3ccccc3c2-c2ccnc3cc(Cl)c(Cl)cc23)n1 [Example 45, 6,7-Dichloro-4-[2-(6-methyl-pyridin-2-yl)-pyrazolo[1,5-a]pyridin-3-yl]-quinoline]",,,,390
"CCc1cccc(-c2nn3ccccc3c2-c2ccc(F)c3ccccc23)n1 [Example 47, 2-(6-Ethyl-pyridin-2-yl)-3-(4-fluoro-naphthalen-1-yl)-pyrazolo[1,5-a]pyridine]",175,5100,100,
"Cc1cccc(-c2nn3ccccc3c2-c2ccnc3cc(OCCCN(C)C)ccc23)n1 [Example 117, Dimethyl-(3-{4-[2-(6-methyl-pyridin-2-yl)-pyrazolo[1,5-a]pyridin-3-yl]-quinolin-7-yloxy}-propyl)-amine]",,,,78

# Next, values leading:
IC50 [1] [nM],IC50 [2] [nM],IC50 [3] [nM],IC50 [4] [nM],SMILES
152,3170,120,,"CCc1cccc(-c2nn3ccccc3c2-c2ccnc3cc(Cl)c(Cl)cc23)n1 [Example 43, 6,7-Dichloro-4-[2-(6-ethyl-pyridin-2-yl)-pyrazolo[1,5-a]pyridin-3-yl]-quinoline]"
806,20000,487,,"c1ccc(-c2nn3ccccc3c2-c2ccncc2)nc1 [Example 53, 3-Pyridin-4-yl-2-pyridin-2-yl-pyrazolo[1,5-a]pyridine]"
102,377,135,,"CCCCc1ccc(-c2nn3ccccc3c2-c2ccnc3ccccc23)nc1 [Example 56, 4-[2-(5-Butyl-pyridin-2-yl)-pyrazolo[1,5-a]pyridin-3-yl]-quinoline]"
,,,233,"Cc1cccc(-c2nn3ccccc3c2-c2ccnc3cc(C(=O)NCCN(C)C)ccc23)n1 [Example 78, 4-[2-(6-Methyl-pyridin-2-yl)-pyrazolo[1,5-a]pyridin-3-yl]-quinoline-7-carboxylic acid(2-dimethylamino-ethyl)-amide]"
